Measured values as given in paper PMC12814185, “Receptor-Mediated Shuttling of a D‑Amino Acid Peptide Achieves High Nanomolar Cytosolic Concentrations” (Journal of the American Chemical Society, 2025).
Like-named read-outs stand apart in the source and are kept apart here. Where a SMILES comes first, the peptide text is derived from it. Bridges are numbered along the chain shown (N, C = ends). Roman numbers before positions name the chains, in order. Triazole bridges read from a SMILES are 1,4-linked. Where no end group is shown, it is not given here. [ ]: non-standard residue; d: D form. Lys(N3) = [N-]=[N+]=NCCCC[C@H](N)C(=O)O; Cit = NC(=O)NCCC[C@H](N)C(=O)O; d(hCys) = N[C@H](CCS)C(=O)O; PEG3 = NCCOCCOCCOCCC(=O)O; Pra = C#CC[C@H](N)C(=O)O

Legend:
[1] = biological target: T1, recombinant human GST-MDM2 (Homo sapiens, UniProt Q00987); test: Fluorescence polarization binding of Cy5-labeled peptides to MDM2; conditions: 20 nM Cy5-labeled peptide, FP buffer pH 7.4, 30 min room temperature; performed twice in technical triplicates
T1 construct: purchased R&D Systems
Procedure: (B) Fluorescence polarization measurement of 20 nM Cy5-labeled peptides binding to recombinant human GST-MDM2.
20 nM of Cy5-labeled peptides were added to dilutions of human MDM2 (Recombinant Human GST -
MDM2/HDM2, R&D Systems) in FP buffer (50 mM tris(hydroxymethyl)aminomethane (Tris, Carl Roth),
150 mM sodium chloride (Sigma), 1 mM EDTA (Sigma), 0.01% (v/v) Tween20 (Sigma), pH 7.4) and
incubated for 30 min at room temperature. Fluorescence polarization was then measured in a Tecan
Spark plate reader (λex = 640 nm, λem = 670 nm). Measurements were performed twice in technical
triplicates. Data was then fit with Prism 10 (GraphPad) using non-linear regression with the following
solution to the quadratic binding equation 1 to obtain Kd:
𝐹𝑃 = 𝐹𝑃 + (𝐹𝑃 − 𝐹𝑃 ) ∗ 𝑐 + 𝑐 + 𝐾 − 𝑝𝑒𝑝𝑡𝑖𝑑𝑒 𝑀𝐷𝑀2 𝑑 𝑝𝑒𝑝𝑡𝑖𝑑𝑒 𝑀𝐷𝑀2

CMKLR1 = biological target: T2, CMKLR1 (Homo sapiens, UniProt Q99788); test: Ca2+ flux assay in COS-7_CMKLR1-eYFP_Δ6Gαqi4myr cells; format: cell-based; conditions: maximum signal over baseline normalized to peptide 1, at least two independent experiments in duplicate
T2 construct: expressed in transfected cells; host or cells: COS-7 (stably transfected, CMKLR1-eYFP + Δ6Gαqi4myr)
T2 sequence (Q99788 1-373): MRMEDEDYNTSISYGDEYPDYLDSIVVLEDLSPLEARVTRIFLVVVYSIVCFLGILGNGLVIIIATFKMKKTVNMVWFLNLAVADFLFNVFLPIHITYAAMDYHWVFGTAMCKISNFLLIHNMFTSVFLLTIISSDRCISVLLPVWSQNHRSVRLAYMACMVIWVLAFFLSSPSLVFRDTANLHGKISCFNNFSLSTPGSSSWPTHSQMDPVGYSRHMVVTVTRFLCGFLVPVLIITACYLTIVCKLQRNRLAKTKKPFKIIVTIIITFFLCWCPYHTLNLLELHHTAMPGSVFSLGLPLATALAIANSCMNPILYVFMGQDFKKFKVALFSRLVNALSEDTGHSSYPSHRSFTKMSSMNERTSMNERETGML
Procedure: (C) Activity of the cyclic chemerin-9 (cC9) derivatives at CMKLR1 tested in a Ca^2+ flux assay. Data points represent the mean ± SEM of at least two independent experiments performed in duplicate.
Calcium flux assay was performed with cells expressing CMKLR1 and the chimeric G protein Δ6Gαqi4myr.
The stably transfected COS-7_CMKLR1-eYFP_ Δ6Gαqi4myr cells were seeded at 25,000 cells per well into poly-ᴅ-lysine-coated 96-well plates (black µCLEAR, Greiner). The next day, cells were incubated with 2.3 µM Fluo-2-AM (Abcam) and 0.06% (v/v) Pluronic-F127 (Sigma) in assay buffer (2.5 mM probenecid (Sigma), 20 mM 4-(2-hydroxyethyl)-1-piperazineethanesulfonic acid (HEPES, Sigma) in Hanks' Balanced Salt Solution (HBSS, Biowest), pH 7.5) for 1 h. This solution was replaced by assay buffer, and basal Ca2+ signal (λex = 485 nm, λem = 525 nm) was measured for 20 s with a Flexstation 3 plate reader (Molecular Devices). Peptide dilutions were added, and the Ca2+ response was measured for 40 s. The maximum signal over baseline was calculated and normalized to peptide 1 (N3-cC9). Non-linear regression was performed using Prism 10 (GraphPad). Experiments were performed in technical duplicates and at least

p53/MDM2 interaction = biological target: T3, p53/MDM2 interaction (Homo sapiens, UniProt Q00987); test: Inhibition of intracellular p53-HaloTag/NanoLuc-MDM2 BRET; format: cell-based; conditions: unlabeled peptides, 72 h
T3 construct: host or cells: HEK293 and HEK293_CMKLR1-eYFP
Procedure: Peptides were incubated on HEK293 and HEK293_CMKLR1-eYFP cells for 72 h, before BRET was measured. Nutlin-3a was incubated on HEK293 cells for 24 h before BRET was measured. Mean ± SEM from two independent experiments performed in duplicate. […]
dividing the Cy5-signal (670±30 nm) by the NanoLuc signal (450±20 nm). netBRET was calculated by subtracting the BRET ratio from cells which were incubated without peptide. To calculate the CMKLR1-specific effect, ΔBRET was calculated by subtracting the netBRET value obtained in cells without CMKLR1 from netBRET obtained in cells with CMKLR1. After the initial readout, a kinetic BRET displacement was performed with the same cells. For this, luminescence was measured every 22 s. After 3 min, 10 µM of the small molecule MDM2 antagonist Nutlin-3a (Sigma) was added to the cells and BRET was measured for another 7 min. Experiments were performed in technical duplicates and three independent times. […]
were then incubated with dilutions of unlabeled PMIγ -peptides for 72 h or with Nutlin-3a for 24 h. […] After 10 min incubation, luminescence was measured, and BRET ratio was calculated by dividing the TMR-signal (600±50 nm) by the NanoLuc signal (450±20 nm). netBRET was calculated and normalized to cells without peptide (100%) and cells which were not label ed with HaloTag TMR Ligand (0%). […]

HEK293_CMKLR1-eYFP cells = test: Resazurin based cell viability assay, peptides; conditions: 72 h incubation
Procedure: page 3: […] 15% FCS. Calcium flux assay Calcium flux assay was performed with cells expressing CMKLR1 and the chimeric G protein […]. The stably transfected COS-7_CMKLR1-eYFP_ […] were seeded at 25,000 cells per well into poly-ᴅ-lysine-coated 96-well plates (black μCLEAR, Greiner). The next day, cells were incubated with […] (Sigma), 20 mM 4-(2-hydroxyethyl)-1-piperazineethanesulfonic acid (HEPES, Sigma) in Hanks' Balanced […] This solution was replaced by assay buffer, and basal Ca2+ signal (λex = 485 nm, λem = 525 nm) was measured for 20 s with a Flexstation 3 plate reader (Molecular Devices). Peptide dilutions were added, and the Ca2+ response was measured for 40 s. The maximum signal over baseline was calculated and normalized to peptide 1 (N3-cC9). Non-linear regression was performed using Prism 10 (GraphPad). Experiments were performed in technical duplicates and at least twice. Cell viability assay HEK293 and HEK293_CMKLR1-eYFP cells were seeded at 15,000 cells per well into poly-ᴅ-lysine coated 96-well plates (black μCLEAR, Greiner). […] Cells were then washed and a resazurin-based cell viability assay was performed. […] (1:1) + 15% FBS without phenol red was added to the cells. […] using the fluorescence of resorufin (λex = 550 nm, λem = 595 nm). Data was normalized to cells incubated without peptide (100%) and cells treated with ethanol for 3 min before resazurin addition (0%). Experiments were performed in technical triplicates and at least twice. Fluorescence microscopy Peptide internalization was evaluated by fluorescence microscopy. […] the cells and incubated for 6 h. […] All shown microscopy images are representative of at least two independent experiments. […] Resazurin based cell viability assay of HEK293 and HEK293_CMKLR1-eYFP cells after 72 h incubation with the p53/MDM2 inhibitor Nutlin-3a. […] 100 50 2Cy 3Cy 4Cy 0 -8 -7 -6 -5 -4 […]], log Figure S4. Resazurin based cell viability assay of HEK293_CMKLR1-eYFP cells after 72 h incubation with the PMIγ peptides discussed in this work. Mean ± SEM from two independent experiments performed in triplicates. 15 […]

[2] = printed as (reference) in the column measured D; calibration standard of the focal volume; source not shown; cited from earlier work
Text: Descriptive statistics of fluorescence correlation spectroscopy (FCS) data from Figure 3. Measurements were obtained in stably transfected HEK293_CMKLR1-eYFP cells as well as endogenously CMKLR1-expressing HMEC-1 and THP-1 cells. SD – standard deviation, GSD – geometric SD factor, IQR – interquartile range applied mean ± SD geometric median (IQR) cell line N° name concentration [nM] mean *÷ GSD [nM] [nM] [nM] HEK29 ...

[3] = read-out: pEC50 ± SEM (converted)

T3 sequence (Q00987 whole entry): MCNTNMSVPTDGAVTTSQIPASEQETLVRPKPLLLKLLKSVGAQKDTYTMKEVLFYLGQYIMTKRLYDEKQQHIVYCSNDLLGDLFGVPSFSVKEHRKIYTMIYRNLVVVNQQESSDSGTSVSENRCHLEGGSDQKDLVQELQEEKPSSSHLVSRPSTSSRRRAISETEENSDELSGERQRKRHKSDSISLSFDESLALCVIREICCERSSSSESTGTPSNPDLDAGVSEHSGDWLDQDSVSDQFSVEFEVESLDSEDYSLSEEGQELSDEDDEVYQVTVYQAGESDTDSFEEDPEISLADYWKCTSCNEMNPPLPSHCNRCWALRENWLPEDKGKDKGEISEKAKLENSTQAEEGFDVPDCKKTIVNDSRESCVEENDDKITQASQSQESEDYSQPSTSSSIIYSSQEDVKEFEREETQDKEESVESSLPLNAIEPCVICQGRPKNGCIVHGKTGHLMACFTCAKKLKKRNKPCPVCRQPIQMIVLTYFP
T1 sequence (Q00987 whole entry): as above

C#CC[C@H](NC(=O)CCOCCOCCOCCNC(=O)[C@H](CCCNC(N)=O)NC(=O)[C@@H](NC(=O)[C@H](CCC(=O)O)NC(=O)CNC(=O)[C@@H](CCCNC(=N)N)NC(=O)[C@@H](CC(C)C)NC(=O)[C@@H](CC(C)C)NC(=O)[C@@H](C)NC(=O)[C@@H](CCC(=O)O)NC(=O)[C@@H](Cc1ccccc1)NC(=O)[C@@H](C)NC(=O)[C@@H](CC(C)C)NC(=O)[C@H]1CCCN1C(=O)[C@@H](Cc1c[nH]c2ccccc12)NC(=O)[C@@H](Cc1c[nH]c2ccccc12)NC(=O)[C@@H](CC(=O)O)NC(=O)CCOCCOCCOCCNC(=O)[C@@H](CCCNC(=N)N)NC(=O)[C@@H](CCCNC(=N)N)NC(=O)[C@@H](CCCNC(=N)N)NC(=O)[C@@H](CCCNC(=N)N)NC(=O)[C@@H](CCCNC(=N)N)NC(=O)[C@@H](CCCNC(=N)N)NC(=O)[C@@H](CCCNC(=N)N)NC(=O)[C@@H](CCCNC(=N)N)NC(=O)[C@@H](CCCNC(=N)N)NC(=O)CCOCCOCCOCCNC(=O)CCCCC[N+]1=C(C=CC=CC=C2N(C)c3ccc(S(=O)(=O)O)cc3C2(C)C)C(C)(C)c2cc(S(=O)(=O)[O-])ccc21)C(C)C)C(N)=O [4Cy]
Kd [1]: 57.1 ± 21.8 nM

CC(=O)N[C@@H](CCCCN=[N+]=[N-])C(=O)N[C@@H](Cc1ccc(O)cc1)C(=O)N[C@@H](Cc1ccccc1)C(=O)N1CCC[C@H]1C(=O)N[C@@H]1CCSSC[C@@H](C(=O)O)NC(=O)[C@H](Cc2ccccc2)NC(=O)[C@H](C)NC(=O)[C@H](Cc2ccccc2)NC(=O)[C@H](CCC(N)=O)NC1=O [compound 1] (Ac-[Lys(N3)]YFP[d(hCys)]QFAFC-OH; disulfide 5-10)
EC50 (CMKLR1; [3]): 3.47 nM

CC(=O)N[C@@H](CCCCn1cc(C[C@H](NC(=O)CCOCCOCCOCCNC(=O)[C@H](CCCNC(N)=O)NC(=O)[C@@H](NC(=O)[C@H](CCC(=O)O)NC(=O)CNC(=O)CNC(=O)[C@@H](CCCNC(=N)N)NC(=O)[C@@H](CC(C)C)NC(=O)[C@@H](CC(C)C)NC(=O)[C@@H](C)NC(=O)[C@@H](CCC(=O)O)NC(=O)[C@@H](Cc2ccccc2)NC(=O)[C@@H](C)NC(=O)[C@@H](CC(C)C)NC(=O)[C@H]2CCCN2C(=O)[C@@H](Cc2c[nH]c3ccccc23)NC(=O)[C@@H](Cc2c[nH]c3ccccc23)NC(=O)[C@H](N)CC(=O)O)C(C)C)C(N)=O)nn1)C(=O)N[C@@H](Cc1ccc(O)cc1)C(=O)N[C@@H](Cc1ccccc1)C(=O)N1CCC[C@H]1C(=O)N[C@@H]1CCSSC[C@@H](C(=O)O)NC(=O)[C@H](Cc2ccccc2)NC(=O)[C@H](C)NC(=O)[C@H](Cc2ccccc2)NC(=O)[C@H](CCC(N)=O)NC1=O [compound 2] (I: H-[dD][dW][dW][dP][dL][dA][dF][dE][dA][dL][dL][dR]GGEV[Cit][PEG3][Pra]-NH2 / II: Ac-[Lys(N3)]YFP[d(hCys)]QFAFC-OH; triazole I:19-II:1; disulfide II:5-II:10; N-terminus assumed)
extent of competition of the p53/MDM2 interaction (p53/MDM2 interaction): neither achieved full competition
displacement of NanoLuc-MDM2/p53-HaloTag BRET (p53/MDM2 interaction; HEK293 versus HEK293_CMKLR1-eYFP): CMKLR1-selective effects at extracellular concentrations above 1 μM
cytotoxicity (HEK293_CMKLR1-eYFP cells): no signs of cytotoxicity

I: GSVSHHHHHHGGHHHH[PEG3][dD][dW][dW][dP][dL][dA][dF][dE][dA][dL][dL][dR]GEV[Cit][PEG3][Pra]-NH2 / II: Ac-[Lys(N3)]YFP[d(hCys)]QFAFC (triazole I:35-II:1; disulfide II:5-II:10) [compound 3]
EC50 (CMKLR1; read-out: EC50): 70.6 nM
EC50 (CMKLR1; [3]): 70.8 nM
cytotoxicity (HEK293_CMKLR1-eYFP cells): tolerated slightly worse at concentrations above 1 μM

sulfo-cyanine5 [sulfo-Cy5]
D in solution, reference [2]: 341.6 µm2/s
